Assay results from US7307166B1, “Oxpurine nucleosides and their congeners, and acyl, derivatives thereof, for improvement of hematopoiesis” (Wellstat Therapeutics Corporation, priority 1987, dated 2007).

Tests used:
Balb/C female mice [1] = assay: Hematopoietic recovery after cyclophosphamide in mice (spleen weight, blood cell counts); format: in vivo, mouse; conditions: Ex 48: day 7 after CP; 2.5 μmoles/mouse
Procedure: Twenty-four hours later and each day thereafter for a total of 6 days, mice were given a 0.4 ml i.p. injection of either physiological saline (controls), guanine (5 μmoles/mouse/day), or guanosine (5 μmoles/mouse/day). On day 7 all 10 mice in each of the three groups were bled, and then sacrificed by cervical dislocation. Spleens were removed and weighed, and complete blood cell counts performed.
Twenty-four hours later and each day thereafter for a total of 6 days, mice were given a 0.4 ml i.p injection of either physiological saline (controls), Tween 80 (0.2%), guanosine (5 μmoles/mouse/day in 0.2% Tween 80), or 2.5 μmoles per mouse per day of one of the following acylated derivatives of guanosine in 0.2% Tween 80: triacetylguanosine, octanoylguanosine, lauroylguanosine, or palmitoylguanosine. On day 7 following CP administration all 10 animals from each of the 7 groups were bled, and then sacrificed by cervical dislocation. Spleens were removed and weighed, and complete blood counts performed.
Twenty-four hours later treatment was begun. Mice were given a 0.4 ml i.p. injection of either physiological saline (controls), Tween 80 (0.2%), or palmitoylguanosine (5 μmoles/mouse/day in 0.2% Tween 80). The timing of the treatments was varied within the groups. The control group was given saline on days 1-6. The mice receiving Tween 80 were treated either on days 1-4, 4-6 or 1-6. Palmitoylguanosine-treated mice were treated either on days 1-2, 1-4, 3-5, 4-6 or 1-6. If a group of mice received no Tween 80 or palmitoylguanosine on a given day, saline was administered by i.p. injection. Thus, there were 9 groups of 9 animals in all. On day 7 following CP administration all of the animals were bled and then sacrificed by cervical dislocation. Spleens were removed and weighed, and complete blood cell counts performed.
Twenty-four hours later and each day thereafter for a total of 6 days, mice were given a 0.4 ml i.p. injection of either physiological saline (controls), Tween 80 (0.5%), or one of three different doses of octanoylguanosine (0.5, 2.5, or 5 μmoles/mouse/day in 0.5% Tween 80). On day 7 following CP administration all 9 animals from each of the […] were bled and then sacrificed by cervical dislocation. Spleens were removed and weighed, and complete blood cell counts performed.
Twenty-four hours later and each day thereafter for a total of 6 days, mice were given a 0.4 ml i.p. injection of either physiological saline (controls), Tween 80 (0.5%), or octanoylguanosine (5.0 μmoles/mouse/day in 0.5% Tween 80). On day 7 following CP administration all 10 animals from each of the 3 groups were bled and then sacrificed by cervical dislocation. Spleens were removed, weighed, and fixed in 10% formalin for later histological examination. Complete blood cell counts were performed on the collected blood.
Twenty-four hours later and each day thereafter for a total of 6 days, mice were given a 0.4 ml i.p. injection of either physiological saline (controls), benzoylguanosine (2.5 μmoles/mouse/day in 0.2% Tween 80), or palmitoylguanosine (2.5 μmoles/mouse/day in 0.2% Tween 80). On days 7 and 10 following CP administration 8 animals from each of the 3 groups were bled and then were sacrificed by cervical dislocation. Spleens were removed and weighed, and complete blood cell counts performed.
Twenty four hours later and each day thereafter for a total of 4 or 6 days, mice were given a 0.4 ml i.p. injection of either physiological saline (controls), palmitoyldeoxyinosine (2.5 μmoles/mouse), or palmitoyl-xanthosine (2.5 μmoles/mouse). On days 5 and 7 following CP administration 6 of the 12 animals in each of the 3 groups were bled and then sacrificed by cervical dislocation. Spleens were removed and weighed, and complete blood cell counts performed.

[2] = test system: Normal Balb/C female mice; assay: Hematopoiesis in normal mice; format: in vivo, mouse; conditions: for spleen weights: 2.5 Moles/mouse/day i.p.; for number of myelocytes (femoral bone marrow): 2.6 μmoles/mouse daily 4 days
Procedure: Normal, otherwise untreated, female Balb/C mice weighing approximately 20 grams each received a total of 4 or 9 0.4 ml intraperitoneal injections (one per day) of either Tween-80 (0.2%) (controls), palmitoylguanosine ([…]), or palmitoyldeoxyinosine ([…]). Twenty-four hours after the 4th or 9th treatment, groups of 5 or 6 animals from each of the 3 groups were bled and then sacrificed by cervical dislocation. Spleens were removed and weighed, and complete blood cell counts performed.
Normal Balb/C female mice weighing approximately 20 grams each were given a daily 0.4 ml i.p. injection of either physiological saline (controls), palmitoylguanosine (2.6 μmoles/mouse), palmitoyldeoxyguanosine (2.6 μmoles/mouse), monopalmitoylguanosine 2′,3′-acyclic dialcohol (2.6 μmoles/mouse), and palmitoyl-8-bromoguanosine (2.6 μmoles/mouse) for 4 days. On the fifth day all 3 animals in each of the 5 groups were bled and then sacrificed by cervical dislocation. Spleens were removed and weighed, and complete blood cell counts performed. Femoral bone marrow from each mouse was collected and a differential cell count performed on marrow smears.

Balb/C female mice [3] = assay: Hematopoietic recovery after cyclophosphamide in mice (spleen weight, blood cell counts); format: in vivo, mouse
[4] = test system: IL-3-dependent bone marrow cells; assay: Apoptosis of IL-3-dependent bone marrow cells deprived of IL-3 (trypan blue exclusion); format: cell-based, mouse
Procedure: Bone marrow cells were obtained by flushing the femurs of three male B6D2F1 mice. The cells were plated at 5.0×10^5/ml in MEM plus 10% fetal calf serum and 25 Units/ml of recombinant IL-3 for 24-48 hours. Non-adherent cells were then separated from adherent cells and maintained for an additional twelve days. IL-3 washed from cells, and cells were plated in MEM plus 10% fetal calf serum in the presence or absence of IL-3 and with or without the addition of palmitoyldeoxyguanosine (10 micrograms per milliliter) or deoxyguanosine (10 micrograms per milliliter). Cells were counted using the trypan blue exclusion method, and the percent of dead cells (trypan blue positive) was determined at 24, 40, 60 and 84 hours following the wash.

[5] = Ex 48: day 5 after CP, 2.5 μmoles/mouse
[6] = Ex 50: day 5 after CP, 2 μmoles/mouse

In the case of `CCCCCCCCCCCCCCCC(=O)OC[C@H]1O[C@@H](n2cnc3c(=O)[nH]cnc32)C[C@@H]1O`, the Neutrophils (Balb/C female mice [1]) is reported as “significantly increased”, the total leukocytes (Balb/C female mice [1]) is reported as “significantly increased” and the spleen weights ([2]; Ex 44: day 5, 4 injections) is reported as “significantly greater”. For the same molecule, the spleen weights ([2]; Ex 44: day 10, 9 injections, vs Tween 80) was “significantly greater”, the neutrophil counts ([2]; Ex 44: day 10, 9 injections) was “significantly greater” and the total leukocyte counts ([2]; Ex 44: day 10, 9 injections) was “significantly greater”. For the same molecule, the neutrophil counts (Balb/C female mice [3]; [5]) was “significantly elevated”, the total leukocyte counts (Balb/C female mice [3]; [5]) was “significantly elevated” and the spleen weight (Balb/C female mice [3]; Ex 48: day 5 after CP, 2.5 μmoles/mouse i.p. daily) was “significantly elevated”. For the same molecule, the spleen weight (Balb/C female mice [3]; Ex 48: day 7 after CP, 2.5 μmoles/mouse) was “significantly increased” and the spleen weight (Balb/C female mice [3]; [6]) was “significantly elevated”.
With `Nc1nc2c(ncn2[C@H]2C[C@H](O)[C@@H](CO)O2)c(=O)[nH]1` [dG, deoxyguanosine] the “% Dead Cells” value ([4]; 24 hr after IL-3 wash, PdG or dG 10 micrograms per milliliter without IL-3, +IL3 = with IL-3) was 15.5 ± 0.5%, the “% Dead Cells” value ([4]; 40 hr after IL-3 wash, 10 micrograms per milliliter) was 21.5 ± 3.5 % and the “% Dead Cells” value ([4]; 60 hr after IL-3 wash, 10 micrograms per milliliter) was 46.3 ± 10.3%. For the same molecule, the “% Dead Cells” value ([4]; 84 hr after IL-3 wash, 10 micrograms per milliliter) was 68.3 ± 6.0%.
With `CCCCCCCCCCCCCCCC(=O)OC[C@H]1O[C@@H](n2c(Br)nc3c(=O)[nH]c(N)nc32)[C@H](O)[C@@H]1O` [palmitoyl-8-bromoguanosine] the “number of myelocytes (femoral bone marrow)” value ([2]; Ex 56: fifth day) was “significantly greater”.
“monopalmitoylguanosine 2′,3′-acyclic dialcohol” was tested, and the “number of myelocytes (femoral bone marrow)” value ([2]; Ex 56: fifth day) was “significantly greater”, the spleen weight ([2]; Ex 56: fifth day, 2.6 μmoles/mouse i.p. daily 4 days) was “significantly elevated” and the spleen weight (Balb/C female mice [3]; [6]) was “significantly elevated”.
